In article PMC3556473, “Absorption, metabolism and excretion of [^14C]pomalidomide in humans following oral administration” (Cancer Chemotherapy and Pharmacology, 2012):
Several values for one entry are separate records, joined by “and”; a condition that tells them apart may be missing. Equal entries are not always repeated.

Legend:
[1] = set-up: method as in earlier work; details: ref 2 and unpublished data, cited from earlier work
[2] = Excretion of radioactivity in urine and feces (mass balance); type: in vivo, human
Procedure: Each subject was administered a single oral suspension of 2 mg (100 μCi) of [^14C]pomalidomide in seltzer water (75 mL) followed by administration of an additional 140 mL of distilled water. Subjects were fasted for 8 h prior to and 4 h following dose administration. The residual radioactivity in the dosing vials was determined, and for six of the eight subjects (subjects 1–4, 6 and 8), the administered dose (1.93–2.02 mg) was close to the target dose of 2 mg. For subjects 5 and 7, a significant amount of radioactivity remained in the dose vial, resulting in administered doses of 1.59 and 1.51 mg, respectively. Calculations for percent of dose recovered in excreta were based on the actual administered doses.
Blood was collected into pre-chilled K3EDTA tubes at pre-dose, 0.5, 1, 1.5, 2, 2.5, 3, 4, 6, 8, 10, 12, 24, 48, 72, 120 and 168 h following dose administration. Blood for radioactivity counting was transferred to a clean tube and stored at or below 4 °C until analyzed. Plasma was harvested by centrifugation from the remaining blood. A plasma sample for radioactivity counting was transferred to a fresh tube. Three plasma aliquots were transferred to tubes containing citric acid for metabolite profiling and for determination of pomalidomide enantiomer concentrations in plasma. Urine was collected pre-dose, 0–6, 6-12, 12–24 and every 24 h thereafter up to 216 h (9 days) following dose administration and were stabilized with one volume of pH 1.5 Sorensen’s citrate buffer (25 mM sodium citrate buffer adjusted to pH 1.5). During the 12- to 24-h collection interval for subject 4, approximately 550 mL of urine was inadvertently poured into the wrong collection urinal and the sample was lost. […] Individual fecal samples were collected pre-dose and for up to 9 days following dose administration, and homogenized using approximately three volumes by weight of pH 1.5 Sorensen’s citrate buffer. All urine, fecal homogenates and plasma samples were stored at or below −20 °C until analyzed.
All radioactivity determinations were performed using Tri-Carb model 2900TR liquid scintillation counter (PerkinElmer, Wellesley, MA). For plasma, urine and residual dose vial analysis, duplicate samples were mixed with Ultima Gold XR scintillation cocktail and directly analyzed by liquid scintillation counting. For fecal homogenate and blood samples, duplicate aliquots were weighed, allowed to dry and combusted using a PerkinElmer model 307 sample oxidizer. The resultant [^14C]CO2 was trapped in Carbosorb (PerkinElmer) in combination with Permafluor and assayed by liquid scintillation counting. For all matrices, any sample that was less than two times the background dpm was assigned a value of zero. Using these criteria, the lower limits of quantification in plasma, blood, urine and feces were 0.894 ng [^14C]pomalidomide equivalent/mL (ngEq/mL), 0.939 ngEq/g, 0.871 ngEq/mL and 2.96 ngEq/g, respectively.
The amount of total radioactivity (ngEq) in urine and feces was determined by multiplying the volume or weight of the samples by the radioactivity concentration. The dose recovered at each time point was determined by total radioactivity in the sample, divided by the total dose administered, multiplied by 100 %. For data BLQ values, a value of zero was assigned for calculations of means.

CYP3A4 = target: T1, CYP3A4 (Homo sapiens, UniProt P08684); assay: In vitro CYP phenotyping (M17 formation from [14C]pomalidomide); type: in vitro ADME
T1 construct: purchased Cypex Ltd (Scotland, UK)
Procedure: (§1) The CYP enzymes responsible for the formation of the hydroxy pomalidomide metabolites were investigated using 10 recombinant human CYP (rCYP) enzymes (CYP1A2, CYP2A6, CYP2B6, CYP2C8, CYP2C9, CYP2C19, CYP2D6, CYP2E1, CYP3A4 and CYP3A5) at 100 pmol/mL. Incubations were prepared using [^14C]pomalidomide (1 μM) in 0.1 M potassium phosphate buffer (pH 7.4) with 4 mM MgCl2, pre-incubated for 5 min at 37 °C. Reactions were initiated by the addition of 1 mM NADPH and continued for 30 or 60 min. Reactions were quenched with two volumes of ice-cold 0.1 % formic acid in acetonitrile containing [^13C5]pomalidomide as internal standard. The samples were mixed and centrifuged, and a subsample of the supernatant evaporated to dryness. The resulting pellet was reconstituted in 0.1 % formic acid in water and acetonitrile (4:1, v/v) and analyzed using HPLC with radiochromatography and/or LC–MS/MS. The rate of formation of the notable human metabolite M17 was calculated and scaled to human in vivo situation using relative abundance method.

CYP2C19 = target: T2, CYP2C19 (Homo sapiens, UniProt P33261); assay: as above; type: in vitro ADME
T2 construct: purchased Cypex Ltd (Scotland, UK)
Procedure: as §1

CYP1A2 = target: T3, CYP1A2 (Homo sapiens, UniProt P05177); assay: as above; type: in vitro ADME
T3 construct: purchased Cypex Ltd (Scotland, UK)
T3 sequence (P05177 1-516): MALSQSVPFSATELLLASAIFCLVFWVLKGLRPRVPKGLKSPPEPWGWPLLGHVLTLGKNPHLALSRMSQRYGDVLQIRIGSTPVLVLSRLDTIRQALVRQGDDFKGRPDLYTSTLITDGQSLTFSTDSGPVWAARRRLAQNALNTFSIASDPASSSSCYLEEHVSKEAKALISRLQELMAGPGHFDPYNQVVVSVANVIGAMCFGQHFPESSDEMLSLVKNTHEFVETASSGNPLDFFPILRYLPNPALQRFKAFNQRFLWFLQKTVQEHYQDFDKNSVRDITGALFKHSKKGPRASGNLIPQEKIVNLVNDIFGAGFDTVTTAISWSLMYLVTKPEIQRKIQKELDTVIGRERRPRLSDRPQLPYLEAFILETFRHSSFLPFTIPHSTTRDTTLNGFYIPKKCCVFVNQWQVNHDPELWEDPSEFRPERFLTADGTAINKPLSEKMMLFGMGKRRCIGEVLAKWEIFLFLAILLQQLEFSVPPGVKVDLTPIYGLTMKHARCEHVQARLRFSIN
Procedure: as §1

CYP2D6 = target: T4, CYP2D6 (Homo sapiens, UniProt P10635); assay: as above; type: in vitro ADME
T4 construct: purchased Cypex Ltd (Scotland, UK)
Procedure: as §1

[3] = percentage of dose, over 216 h, listed as [^14C]pomalidomide

T2 sequence (P33261 whole entry): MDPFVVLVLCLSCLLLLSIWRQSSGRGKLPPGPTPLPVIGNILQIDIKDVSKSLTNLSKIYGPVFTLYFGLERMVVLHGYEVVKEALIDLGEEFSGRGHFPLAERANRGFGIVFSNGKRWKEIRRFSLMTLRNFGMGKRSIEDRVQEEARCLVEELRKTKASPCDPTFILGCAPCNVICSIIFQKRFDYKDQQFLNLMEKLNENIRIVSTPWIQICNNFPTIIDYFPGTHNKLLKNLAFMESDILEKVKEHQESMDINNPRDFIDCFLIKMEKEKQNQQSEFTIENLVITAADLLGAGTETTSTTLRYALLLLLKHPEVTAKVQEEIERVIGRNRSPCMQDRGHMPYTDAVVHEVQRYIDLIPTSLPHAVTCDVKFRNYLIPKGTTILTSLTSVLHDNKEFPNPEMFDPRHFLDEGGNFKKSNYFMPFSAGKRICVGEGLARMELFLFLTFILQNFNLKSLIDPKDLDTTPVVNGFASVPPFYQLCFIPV
T1 sequence (P08684 whole entry): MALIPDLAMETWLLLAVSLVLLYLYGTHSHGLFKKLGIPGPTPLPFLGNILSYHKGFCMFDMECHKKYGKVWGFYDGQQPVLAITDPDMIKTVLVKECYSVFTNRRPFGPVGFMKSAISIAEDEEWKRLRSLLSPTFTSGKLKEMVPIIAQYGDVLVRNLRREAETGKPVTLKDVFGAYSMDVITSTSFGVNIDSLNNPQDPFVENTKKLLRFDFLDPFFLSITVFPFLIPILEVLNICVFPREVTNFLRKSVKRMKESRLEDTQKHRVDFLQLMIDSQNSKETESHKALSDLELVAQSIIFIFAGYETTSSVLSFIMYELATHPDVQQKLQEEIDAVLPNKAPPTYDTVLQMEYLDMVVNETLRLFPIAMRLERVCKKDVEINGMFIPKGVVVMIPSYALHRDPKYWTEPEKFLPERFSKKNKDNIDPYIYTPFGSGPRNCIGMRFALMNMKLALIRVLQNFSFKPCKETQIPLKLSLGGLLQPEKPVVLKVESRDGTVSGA
T4 sequence (P10635 whole entry): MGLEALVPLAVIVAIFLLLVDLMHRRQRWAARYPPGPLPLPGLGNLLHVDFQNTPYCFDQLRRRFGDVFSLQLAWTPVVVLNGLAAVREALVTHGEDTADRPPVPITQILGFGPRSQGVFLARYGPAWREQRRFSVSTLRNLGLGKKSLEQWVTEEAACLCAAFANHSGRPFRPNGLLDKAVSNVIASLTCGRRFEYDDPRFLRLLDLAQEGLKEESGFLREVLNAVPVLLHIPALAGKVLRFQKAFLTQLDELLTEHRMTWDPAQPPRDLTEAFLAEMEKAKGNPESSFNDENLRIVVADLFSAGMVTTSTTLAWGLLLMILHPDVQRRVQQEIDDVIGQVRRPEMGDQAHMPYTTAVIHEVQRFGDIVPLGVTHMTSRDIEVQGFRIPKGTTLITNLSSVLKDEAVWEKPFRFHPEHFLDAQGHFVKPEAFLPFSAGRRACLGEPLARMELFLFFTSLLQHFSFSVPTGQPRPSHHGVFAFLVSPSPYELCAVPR

| SMILES | mean C max and AUC accumulation ratios ([1]; once-daily administrations, MM patients) | half-life ([1]; relapsed or refractory MM patients) [h] | mean total recovery of radioactivity (urine + feces) ([2]; % of radioactive dose, collection over 216 h (9 days), eight subjects, listed as [^14C]pomalidomide) | oral absorption ([2]; inferred from urinary radioactivity and unchanged drug in feces) [%] | radioactivity excreted in feces, mean [2, 3] | radioactivity excreted in urine, mean [2, 3] | radioactivity recovered within the first 48 h after dose administration ([2]; urine + feces) [%] | relative contribution of isozyme to the hepatic metabolism of pomalidomide (CYP3A4; CYP3A4, scaled by relative abundance in human liver) [%] | relative contribution of isozyme to the hepatic metabolism of pomalidomide (CYP2C19; CYP2C19, scaled by relative abundance in human liver) [%] | relative contribution of isozyme to the hepatic metabolism of pomalidomide (CYP1A2; CYP1A2, scaled by relative abundance in human liver) [%] | relative contribution of isozyme to the hepatic metabolism of pomalidomide (CYP2D6; CYP2D6, scaled by relative abundance in human liver) [%] | rate of M17 formation (CYP3A4; rCYP3A4, [14C]pomalidomide 1 μM, 1-h incubation, based on peak area ratios, estimated) [pmol/min/pmol P450] | rate of M17 formation (CYP2C19; rCYP2C19, [14C]pomalidomide 1 μM, 1-h incubation, based on peak area ratios, estimated) [pmol/min/pmol P450] | rate of M17 formation (CYP1A2; rCYP1A2, [14C]pomalidomide 1 μM, 1-h incubation, based on peak area ratios, estimated) [pmol/min/pmol P450] | rate of M17 formation (CYP2D6; rCYP2D6, [14C]pomalidomide 1 μM, 1-h incubation, based on peak area ratios, estimated) [pmol/min/pmol P450] |
| --- | --- | --- | --- | --- | --- | --- | --- | --- | --- | --- | --- | --- | --- | --- | --- |
| Nc1cccc2c1C(=O)N(C1CCC(=O)NC1=O)C2=O (racemic) [Pomalidomide, (RS)-4-amino-2-(2,6-dioxo-piperidin-3-yl)-isoindoline-1,3-dione] | < 2 | 6.5 to 8.0 | 88% and 88.3% | > 70 | 15% and 15.5 ± 2.5% | 73% and 72.8 ± 16.7% | > 80 | 30 | 11 | 54 | 4 | – | – | – | – |
| Nc1c(O)ccc2c1C(=O)N(C1CCC(=O)NC1=O)C2=O (stereo not drawn) [Metabolite M17, 5-hydroxy pomalidomide] | – | – | – | – | – | – | – | – | – | – | – | 0.0008 | 0.0024 | 0.0027 | 0.0011 |
